These are literature values, as cited in EP1133548B2, “DETERGENT COMPOSITIONS IN TABLET FORM” (UNILEVER PLC, priority 1998, dated 2000).

For this series the following is noted: 20°C; grams of solid to form a saturated solution in 100 grams of water.
Turning to `O=BO[O-].[Na+]` [Sodium perborate anhydrous], the “Water Solubility (g/100g)” value was 3.7 g/100g.
As to `O=P(O)(O)OP(=O)(O)OP(=O)(O)O` [Sodium tripolyphosphate anhydrous], the “Water Solubility (g/100g)” value is on record as 15 g/100g.
On to `NC(N)=O` [Urea], for which the “Water Solubility (g/100g)” value is given as above 100 g/100g.
